Holding throughout (format): cell-based
For assay [1], the system named is human leukemia cell line K562. The assay is described as follows: In vitro antitumor/anticancer testing (CCK-8), K562. As to conditions: 48 h, read-out: Percent growth inhibition. How it is done: Each of Tea Product 1 and Conventional Tea Product obtained in section A of this example was used to prepare test tea samples according to the method described below. A proper amount of the respective tea product was added into sterile water to prepare a stock solution with a concentration of 100 mg/mL, followed by using a membrane filter with a pore size of 0.22 μm to conduct vacuum filtration and sterilization. The resulting stock solution was diluted with a respective complete medium shown in Table 3 below to form test tea samples with different concentrations. In other words, the thus obtained test tea samples to be used for treating a respective cancer/tumor cell line shown in Table 3 were prepared using the same complete medium as that for the respective cancer/tumor cell line.
Specifically, each of the aforesaid commercially available agents was subjected to the method described below to prepare comparative test samples. A proper amount of a respective commercially available agent was dissolved in phosphate-buffered saline (PBS) to prepare a stock solution with a concentration of 5 mg/mL, followed by using a membrane filter with a pore size of 0.22 μm to conduct vacuum filtration and sterilization. The resulting stock solution was diluted with a respective complete medium shown in Table 3 below to form comparative test samples with different concentrations. To be specific, the comparative test samples prepared from the respective commercially available agent have the concentrations shown in Table 2 below. The thus obtained comparative test samples to be used for treating a respective cancer/tumor cell line shown in Table 3 were prepared using the same complete medium as that for the respective cancer/tumor cell line.
The cultivation of each cancer/tumor cell line is described as follows. […] Afterwards, a cell suspension having a cell density of 1.0×10^4 cells/mL was prepared.
As experimental groups, the tumor/cancer cells of each cell line were treated with the test tea samples prepared from one or more of the tea products and the comparative test samples prepared from one or more of the commercially available agents as obtained in section B of this example (for more detailed information about the tea product(s) and the commercially available product (s) used to treat each cell line, please see Table 4 below). To be specific, 6 to 10 test tea samples prepared from the same tea product and having different concentrations, as well as 6 to 10 comparative test samples prepared from the same commercially available agent and having different concentrations, were utilized to treat the tumor/cancer cells of each cell line. For each experimental group, 6 repetitions of tumor/cancer treatment were performed. For the control group, 100 μL of PBS was added to a well containing the medium and the cancer/tumor cells of the respective cell line. For the blank group, 100 μL of PBS was added to a well containing a complete medium the same as that used for cultivation of the cancer/tumor cells of the respective cell line.
After the treatment described above, cultivation was conducted in an incubator (37° C., 100% relative humidity, 5% CO2) for 48 hours. Subsequently, the liquid containing the medium and the sample in the well was removed, and a respective complete medium (shown in Table 3 above) containing 10% CCK-8 (Cell Counting Kit-8)(Dojindo Molecular Technologies, Inc., Cat. No. CK04-13) was added. Cultivation was performed in an incubator (37° C.) for 2 to 4 hours, followed by gently shaking.

For assay [2], the system named is human ovarian cancer cell line SK-OV-3. Put plainly: In vitro antitumor/anticancer testing (CCK-8), SK-OV-3. As to conditions: 48 h. Here is the method:
(§1) Each of Tea Product 1 and Conventional Tea Product obtained in section A of this example was used to prepare test tea samples according to the method described below. A proper amount of the respective tea product was added into sterile water to prepare a stock solution with a concentration of 100 mg/mL, followed by using a membrane filter with a pore size of 0.22 μm to conduct vacuum filtration and sterilization. The resulting stock solution was diluted with a respective complete medium shown in Table 3 below to form test tea samples with different concentrations. In other words, the thus obtained test tea samples to be used for treating a respective cancer/tumor cell line shown in Table 3 were prepared using the same complete medium as that for the respective cancer/tumor cell line. […] Specifically, each of the aforesaid commercially available agents was subjected to the method described below to prepare comparative test samples. A proper amount of a respective commercially available agent was dissolved in phosphate-buffered saline (PBS) to prepare a stock solution with a concentration of 5 mg/mL, followed by using a membrane filter with a pore size of 0.22 μm to conduct vacuum filtration and sterilization. The resulting stock solution was diluted with a respective complete medium shown in Table 3 below to form comparative test samples with different concentrations. To be specific, the comparative test samples prepared from the respective commercially available agent have the concentrations shown in Table 2 below. The thus obtained comparative test samples to be used for treating a respective cancer/tumor cell line shown in Table 3 were prepared using the same complete medium as that for the respective cancer/tumor cell line. […] The cultivation of each cancer/tumor cell line is described as follows. […] Afterwards, a cell suspension having a cell density of 1.0×10^4 cells/mL was prepared. […] As experimental groups, the tumor/cancer cells of each cell line were treated with the test tea samples prepared from one or more of the tea products and the comparative test samples prepared from one or more of the commercially available agents as obtained in section B of this example (for more detailed information about the tea product(s) and the commercially available product (s) used to treat each cell line, please see Table 4 below). To be specific, 6 to 10 test tea samples prepared from the same tea product and having different concentrations, as well as 6 to 10 comparative test samples prepared from the same commercially available agent and having different concentrations, were utilized to treat the tumor/cancer cells of each cell line. For each experimental group, 6 repetitions of tumor/cancer treatment were performed. For the control group, 100 μL of PBS was added to a well containing the medium and the cancer/tumor cells of the respective cell line. For the blank group, 100 μL of PBS was added to a well containing a complete medium the same as that used for cultivation of the cancer/tumor cells of the respective cell line. After the treatment described above, cultivation was conducted in an incubator (37° C., 100% relative humidity, 5% CO2) for 48 hours. Subsequently, the liquid containing the medium and the sample in the well was removed, and a respective complete medium (shown in Table 3 above) containing 10% CCK-8 (Cell Counting Kit-8)(Dojindo Molecular Technologies, Inc., Cat. No. CK04-13) was added. Cultivation was performed in an incubator (37° C.) for 2 to 4 hours, followed by gently shaking.

In assay [3] the test system is human glioblastoma cell line U-87MG. Put plainly: In vitro antitumor/anticancer testing (CCK-8), U-87MG. The settings on record: 48 h. Here is the method: as §1
Assay [4] relates to human cervical cancer cell line Hela. The assay is described as follows: In vitro antitumor/anticancer testing (CCK-8), Hela. The settings on record: 48 h. How it is done:
as §1

The test system of assay [5] is human lung cancer cell line A549. Put plainly: In vitro antitumor/anticancer testing (CCK-8), A549. The settings on record: 48 h. Here is the method: as §1

For orientation: inhibition means the drop in the measured response relative to a control, in per cent. Turning to `Cc1ccc(NC(=O)c2ccc(CN3CCN(C)CC3)cc2)cc1Nc1nccc(-c2cccnc2)n1` [Glivec], in assay [1] (0.0184 μg/mL), the inhibition at 0.0184 µg/mL worked out at 17.7%. Besides, the inhibition at 0.0369 µg/mL in assay [1] (0.0369 μg/mL) was determined as 35.7%. Further, the inhibition at 0.0737 µg/mL in assay [1] (0.0737 μg/mL) was 55.3%. Also, the inhibition at 0.1474 µg/mL in assay [1] (0.1474 μg/mL) amounted to 66.2%. Further, in assay [1] (0.2949 μg/mL), the inhibition at 0.2949 µg/mL came out at 81.5%. Moreover, the inhibition at 0.5897 µg/mL in assay [1] (0.5897 μg/mL) was found to be 88.9%.
On to `N.N.[Cl][Pt][Cl]` [Cisplatin], for which the Percent growth inhibition in assay [2] (0.0625 μg/mL) is 5.63%; in assay [2] (0.125 μg/mL) it was 6.86%; in assay [2] (0.25 μg/mL), 13.36%; in assay [2] (0.5 μg/mL), 28.16%; in assay [2] (1 μg/mL) it was 51.92%; in assay [2] (2 μg/mL) it was 65.87%. The Percent growth inhibition is 81.38% in assay [2] (4 μg/mL); 88.36% in assay [2] (8 μg/mL); 83.65% in assay [2] (16 μg/mL); 2.27% in assay [3] (0.0625 μg/mL); 1.91% in assay [3] (0.125 μg/mL); 0.10% in assay [3] (0.25 μg/mL). The Percent growth inhibition in assay [3] (0.5 μg/mL) amounted to 2.72%; in assay [3] (1 μg/mL), 20.84%; in assay [3] (2 μg/mL), 43.00%; in assay [3] (4 μg/mL), 63.60%; in assay [3] (8 μg/mL), 85.10%; in assay [3] (16 μg/mL), 76.01%. Further, the Percent growth inhibition is −3.05% in assay [4] (0.0625 μg/mL); −7.31% in assay [4] (0.125 μg/mL); −11.93% in assay [4] (0.25 μg/mL); −33.69% in assay [4] (0.5 μg/mL); −29.75% in assay [4] (1 μg/mL); 16.62% in assay [4] (2 μg/mL). Further, the Percent growth inhibition in assay [4] (4 μg/mL) is on record as 90.1%; in assay [4] (8 μg/mL), 98.3%; in assay [4] (16 μg/mL) it was 98.98%; in assay [5] (0.125 μg/mL), 6.73%; in assay [5] (0.25 μg/mL), 8.55%; in assay [5] (0.5 μg/mL), 14.21%. Also, the Percent growth inhibition in assay [5] (1 μg/mL) was 29.60%; in assay [5] (3 μg/mL) it was 88.98%; in assay [5] (4 μg/mL), 57.57%; in assay [5] (7 μg/mL), 36.60%; in assay [5] (16 μg/mL) it was 97.45%. Besides, the IC50 result is reported as “IC50 (μg/mL) = 1.112” in assay [2] (SK-OV-3), “IC50 (μg/mL) = 2.751” in assay [3] (U-87MG), “IC50 (μg/mL) = 2.656” in assay [4] (Hela) and “IC50 (μg/mL) = 2.503” in assay [5] (A549).

These data come from patent US20180071354A1, “SELECTIVE BREEDING METHOD OF ANTITUMOR/ANTICANCER CAMELLIA SINENSIS STRAIN, AND TEA PRODUCT OF SUCH STRAIN” (FUJIAN AGRICULTURE AND FORESTRY UNIVERSITY, priority 2015, published 2018).
